Results taken from patent US20230130766A1 (SALK INSTITUTE FOR BIOLOGICAL STUDIES, priority 2020, published 2023).

Legend:
Assay type in all cases: in vivo, nude mice
NCI-H358 cells = assay: H358 xenografts treated with ULK inhibitor alone; conditions: 30 mg/kg twice daily
Procedure: NCI-H358 cells (5M cells) were injected bilaterally into the flanks of twenty nude mice to create tumor xenografts in order to assess the efficacy of Compound 14 in treating non-small cell lung cancer tumors. After 32 days of letting tumor cells proliferate (at which point tumors had reach ˜200 mm^3 in volume), one cohort of ten mice was administered 30 mg/kg twice daily doses of Compound 14, and the remaining mice administered vehicle alone. Treatment and monitoring was continued until day 72 post inoculation of tumor cells.

NCI-H460 cells = assay: NCI-H460 xenografts treated with ULK inhibitor alone; conditions: 30 mg/kg twice daily
Procedure: NCI-H460 cells (2.5M cells) were injected bilaterally into the flanks of twenty-four nude mice to create tumor xenografts in order to assess the efficacy of Compound 14 in treating non-small cell lung cancer tumors. After 14 days of letting tumor cells proliferate (at which point tumors had reach ˜200 mm^3 in volume), one cohort of twelve mice was administered 30 mg/kg twice daily doses of Compound 14, and the remaining mice administered vehicle alone. Treatment and monitoring were continued until day 23 post inoculation of tumor cells (9 days of treatment).

A549 cells = assay: A549 xenografts, ULK inhibitor alone and in combination with carboplatin
Procedure: A549 cells (5M cells) were injected bilaterally into the flanks of thirty-six nude mice to create tumor xenografts in order to assess the efficacy of Compound 14 in treating non-small cell lung cancer tumors both alone and in combination with carboplatin, the current standard of care therapy for non-small cell lung cancer. After 11 days of letting tumor cells proliferate (at which point tumors were ˜50 mm^3 in volume), administration of carboplatin, Compound 14, or combinations began. One cohort of six mice received 20 mg/kg twice daily doses of Compound 14 alone, one cohort of six mice received 30 mg/kg twice daily doses of Compound 14 alone, one cohort of six mice received 25 mg/kg doses of carboplatin every three days, one cohort of six mice received 20 mg/kg twice daily doses of Compound 14 in conjunction with 25 mg/kg doses of carboplatin every three days, one cohort of six mice received 30 mg/kg twice daily doses of Compound 14 in conjunction with 25 mg/kg doses of carboplatin every three days, and the remaining six mice were treated with vehicle. Treatment and monitoring was continued until day 53 post inoculation of tumor cells (42 days of treatment).

Structure (SMILES): CNC(=O)c1ccccc1Nc1nc(Nc2cc(OC)c(OC)c(OC)c2)ncc1Br [Compound 14]
- % growth of tumor cells relative to the start of treatment (NCI-H358 cells): clear reduction in average tumor size
- average tumor volume (NCI-H358 cells; day 32 to day 72 post inoculation): no growth during the monitoring period, and even a decrease in tumor size
- average tumor mass at the end of the study (NCI-H358 cells; day 35 post treatment): substantially smaller overall tumor burden compared to control
- % growth of tumor relative to the start of treatment (NCI-H460 cells): clear reduction in tumor growth
- average tumor volume (NCI-H460 cells; 9 days of treatment): substantially reduced growth during the monitoring period compared to the control
- tumor growth (NCI-H460 cells; after 3 days of treatment): tumor growth had virtually stopped
- less tumor mass than vehicle treated mice (NCI-H460 cells; day 9 post treatment): ~50%
- final tumor average volume (A549 cells; 20 mg/kg twice daily alone, day 53): ~150 mm^3
- average tumor mass at the end of the study (A549 cells; 30 mg/kg twice daily alone, 42 days of treatment): smallest tumors
- tumor volume at the end of the study (A549 cells; 30 mg/kg twice daily alone, day 53): ~50 mm^3
- average tumor mass at the end of the study (A549 cells; both combinations: Compound 14 20 or 30 mg/kg twice daily with carboplatin 25 mg/kg every three days, 42 days): smallest tumors
- tumor volume at the end of the study (A549 cells; both combinations: Compound 14 20 or 30 mg/kg twice daily with carboplatin 25 mg/kg every three days, day 53): ~50 mm^3
- tumor growth compared to the control (A549 cells; monotherapy: carboplatin 25 mg/kg every three days, Compound 14 20 mg/kg twice daily): markedly reduced growth compared to the control
